Measurements published in PMC8016166, “Identification of a Potent and Selective 5-HT1A Receptor Agonist with In Vitro and In Vivo Antinociceptive Activity” (ACS Chemical Neuroscience, 2020).

What was measured:
human 5-HT7b = target: T1, human 5-HT7b (Homo sapiens, UniProt P34969); test: Radioligand binding at 5-HT7 in transfected HEK293 cells; settings: for selectivity 5-HT7/5-HT1A: Antilog [pKi (5-HT1AR) – pKi (5-HT7R)]; for Ki: transfected HEK293 cells, [3H]-5-CT, read-out: 5-HT7 pKi ± SEM (converted)
T1 construct: expressed in transfected cells
T1 sequence (P34969 1-432): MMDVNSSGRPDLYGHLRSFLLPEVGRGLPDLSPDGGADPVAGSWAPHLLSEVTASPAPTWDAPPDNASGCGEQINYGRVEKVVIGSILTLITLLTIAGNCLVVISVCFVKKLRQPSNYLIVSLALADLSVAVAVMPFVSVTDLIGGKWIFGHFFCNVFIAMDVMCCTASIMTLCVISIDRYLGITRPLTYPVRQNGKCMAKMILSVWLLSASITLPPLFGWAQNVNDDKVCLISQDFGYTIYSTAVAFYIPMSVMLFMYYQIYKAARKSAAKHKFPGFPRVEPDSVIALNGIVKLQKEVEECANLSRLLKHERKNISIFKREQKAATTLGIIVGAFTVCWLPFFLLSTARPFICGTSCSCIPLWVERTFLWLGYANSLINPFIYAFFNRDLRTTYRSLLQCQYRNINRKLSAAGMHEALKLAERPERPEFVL

5-HT2CR = target: T2, 5-HT2CR (Rattus norvegicus, UniProt P08909); test: Radioligand binding at 5-HT2C on rat frontal cortex membranes; settings: for selectivity 5-HT2/5-HT1A: Antilog [pKi (5-HT1AR) – pKi (5-HT2CR)]; for Ki: rat frontal cortex membranes, [3H]mesulergine, read-out: 5-HT2C pKi ± SEM (converted)
T2 construct: from tissue; host or cells: frontal cortex of male Sprague-Dawley rats
T2 sequence (P08909 33-460): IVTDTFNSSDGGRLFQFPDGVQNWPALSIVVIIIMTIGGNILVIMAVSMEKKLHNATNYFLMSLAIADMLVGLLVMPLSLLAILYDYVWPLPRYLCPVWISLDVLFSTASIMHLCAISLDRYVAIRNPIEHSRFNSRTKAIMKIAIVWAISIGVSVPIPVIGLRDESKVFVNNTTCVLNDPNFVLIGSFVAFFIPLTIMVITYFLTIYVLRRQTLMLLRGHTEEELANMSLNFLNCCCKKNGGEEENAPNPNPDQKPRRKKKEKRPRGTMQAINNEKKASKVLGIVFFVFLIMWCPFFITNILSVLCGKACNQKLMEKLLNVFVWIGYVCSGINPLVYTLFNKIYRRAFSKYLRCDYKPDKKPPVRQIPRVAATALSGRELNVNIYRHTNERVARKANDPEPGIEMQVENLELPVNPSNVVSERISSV
Protocol: (§1) Male Sprague–Dawley rats were decapitated and their brains removed and placed on ice. The hippocampi (for the functional 5-HT1A receptor assay) or frontal cortexes (for the competitive 5-HT2A and 5-HT2C receptor assays) were dissected and homogenized with a glass homogenizer in 30 vol. ice-cold TED buffer (50 mMTris-HCl, 1 mM EDTA, 1 mM dithiotheritol, pH 7.4). Next, the homogenate was centrifuged at 21 000g for 30 min at 4 °C. The pellet was suspended in 30 vol TED buffer (pH 7.4) and incubated in a water bath for 10 min at 37 °C to remove endogenous ligands. The suspension was centrifuged again at 21 000g for 30 min at 4 °C. The pellet was resuspended in 30 vol TED buffer (pH 7.4) and the centrifugation step was repeated. The final pellet was suspended in 10 vol 50 mM Tris-HCl (pH 7.4) and stored at −80 °C until use.[47]
(§2) The 5-HT2A assay was performed according to a previously described protocol with some modifications.[48] […] Nonspecific binding was determined in the presence of 10 μM mianserin. For the 5-HT2C assay, the frontal cortex homogenates (250 μg protein/mL) were incubated in triplicate with 1 nM [^3H]mesulergine for 60 min at 36 °C in a 50 mM Tris-HCl (pH 7.4) buffer containing 0.1% ascorbate, 10 mM MgCl2, 10 μM pargyline, 100 nM spiperone, and increasing concentrations (10^–10–10^–5 M) of the compound tested. After incubation, the reaction mixture was deposited onto UniFilter-96 GF/B plates, with the aid of a FilterMate-96 Harvester. The filter plates were presoaked with 0.4% PEI for 1 h. Next, each filter well was washed with 1.75 mL of 50 mM Tris-HCl (pH 7.4) and left to dry on a heating block set to 50 °C for 2 h. Then, 45 μL of Microscint-20 scintillation fluid was added to each filter well and left to equilibrate overnight. The filter-bound radioactivity was counted in a MicroBeta^2 Microplate Counter. Curves were fitted with a one-site sigmoidal dose–response equation and pKi for each compound was calculated with the Cheng-Pursoff equation. Results were analyzed with one-way ANOVA followed by the Bonferroni’s posthoc test. The results are expressed as means ± SEM of three independent experiments.

5-HT2AR = target: T3, 5-HT2AR (Rattus norvegicus, UniProt P14842); test: Radioligand binding at 5-HT2A on rat frontal cortex membranes; settings: for selectivity 5-HT2A/5-HT1A: Antilog [pKi (5-HT1AR) – pKi (5-HT2AR)]; for Ki: read-out: 5-HT2A pKi ± SEM (converted)
T3 construct: from tissue; host or cells: frontal cortex of male Sprague-Dawley rats
T3 sequence (P14842 whole entry): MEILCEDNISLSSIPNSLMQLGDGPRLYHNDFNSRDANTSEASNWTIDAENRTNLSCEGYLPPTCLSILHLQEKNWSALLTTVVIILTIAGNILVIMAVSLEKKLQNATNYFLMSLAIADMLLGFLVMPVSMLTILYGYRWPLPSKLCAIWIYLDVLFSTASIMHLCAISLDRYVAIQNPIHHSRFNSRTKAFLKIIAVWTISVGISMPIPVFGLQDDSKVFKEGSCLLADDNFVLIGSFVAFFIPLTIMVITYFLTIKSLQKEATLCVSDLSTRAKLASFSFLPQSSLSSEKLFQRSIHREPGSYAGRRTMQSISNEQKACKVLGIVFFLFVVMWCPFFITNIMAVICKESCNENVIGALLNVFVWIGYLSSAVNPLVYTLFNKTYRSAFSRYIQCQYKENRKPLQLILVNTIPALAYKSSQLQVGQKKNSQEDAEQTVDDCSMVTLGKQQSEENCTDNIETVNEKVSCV
Protocol: as §1, §2

Q: How did the “selectivity 5-HT7/5-HT1A” value (human 5-HT7b) turn out when `c1ccc(C2(c3ccccc3)OCC(CNCCOc3ccccc3-c3ccncc3)O2)cc1` (racemic) [rac-1, N-[(2,2-diphenyl-1,3-dioxolan-4-yl)methyl]-2-[2-(pyridin-4-yl)phenoxy]ethan-1-ammonium hydrogenoxalate] was run?
A: 56

Q: And the Ki (human 5-HT7b)?
A: 513 nM

Q: And the “selectivity 5-HT2/5-HT1A” value (5-HT2CR)?
A: 40

Q: And the Ki (5-HT2CR)?
A: 363 nM

Q: And the “selectivity 5-HT2A/5-HT1A” value (5-HT2AR)?
A: 123

Q: What about the Ki (5-HT2AR) of the same molecule?
A: 1120 nM

Q: `Cn1cncc1-c1ccccc1OCCNCC1COC(c2ccccc2)(c2ccccc2)O1` (racemic) [rac-2, N-((2,2-diphenyl-1,3-dioxolan-4-yl)methyl)-2-(2-(1-methyl-1H-imidazol-5-yl)phenoxy)ethan-1-ammonium hydrogenoxalate] was tested. Which “selectivity 5-HT7/5-HT1A” value (human 5-HT7b) did it give?
A: 89

Q: What about the Ki (human 5-HT7b) of the same molecule?
A: 661 nM

Q: What about the “selectivity 5-HT2/5-HT1A” value (5-HT2CR) of the same molecule?
A: 45

Q: What about the Ki (5-HT2CR) of the same molecule?
A: 331 nM

Q: What about the “selectivity 5-HT2A/5-HT1A” value (5-HT2AR) of the same molecule?
A: 56

Q: What about the Ki (5-HT2AR) of the same molecule?
A: 417 nM

Q: Which results are given for `c1ccc(C2(c3ccccc3)OC[C@@H](CNCCOc3ccccc3-c3ccncc3)O2)cc1` [(R)-1, N-[(2,2-Diphenyl-1,3-dioxolan-4-yl)methyl]-2-[2-(pyridin-4-yl)phenoxy]ethan-1-ammonium hydrogenoxalate]?
A: selectivity 5-HT7/5-HT1A (human 5-HT7b): 112; Ki (human 5-HT7b): 501 nM; selectivity 5-HT2/5-HT1A (5-HT2CR): 204; Ki (5-HT2CR): 912 nM; selectivity 5-HT2A/5-HT1A (5-HT2AR): 355; Ki (5-HT2AR): 1580 nM

Q: How did the “selectivity 5-HT7/5-HT1A” value (human 5-HT7b) turn out when `Cn1cncc1-c1ccccc1OCCNC[C@@H]1COC(c2ccccc2)(c2ccccc2)O1` [(R)-2, N-((2,2-Diphenyl-1,3-dioxolan-4-yl)methyl)-2-(2-(1-methyl-1H-imidazol-5-yl)phenoxy)ethan-1-ammonium hydrogenoxalate] was run?
A: 66

Q: What about the Ki (human 5-HT7b) of the same molecule?
A: 794 nM

Q: What about the “selectivity 5-HT2/5-HT1A” value (5-HT2CR) of the same molecule?
A: 105

Q: What about the Ki (5-HT2CR) of the same molecule?
A: 1260 nM

Q: And the “selectivity 5-HT2A/5-HT1A” value (5-HT2AR)?
A: 74

Q: What about the Ki (5-HT2AR) of the same molecule?
A: 891 nM

Q: How did the “selectivity 5-HT7/5-HT1A” value (human 5-HT7b) turn out when `c1ccc(C2(c3ccccc3)OC[C@H](CNCCOc3ccccc3-c3ccncc3)O2)cc1` [(S)-1, N-[(2,2-Diphenyl-1,3-dioxolan-4-yl)methyl]-2-[2-(pyridin-4-yl)phenoxy]ethan-1-ammonium hydrogenoxalate] was run?
A: 43

Q: And the Ki (human 5-HT7b)?
A: 398 nM

Q: And the “selectivity 5-HT2/5-HT1A” value (5-HT2CR)?
A: 102

Q: And the Ki (5-HT2CR)?
A: 955 nM

Q: And the “selectivity 5-HT2A/5-HT1A” value (5-HT2AR)?
A: 85

Q: What about the Ki (5-HT2AR) of the same molecule?
A: 794 nM

Q: Which “selectivity 5-HT7/5-HT1A” value (human 5-HT7b) does the source give for `Cn1cncc1-c1ccccc1OCCNC[C@H]1COC(c2ccccc2)(c2ccccc2)O1` [(S)-2, N-((2,2-Diphenyl-1,3-dioxolan-4-yl)methyl)-2-(2-(1-methyl-1H-imidazol-5-yl)phenoxy)ethan-1-ammonium hydrogenoxalate] here?
A: 148

Q: And the Ki (human 5-HT7b)?
A: 603 nM

Q: What about the “selectivity 5-HT2/5-HT1A” value (5-HT2CR) of the same molecule?
A: 78

Q: What about the Ki (5-HT2CR) of the same molecule?
A: 316 nM

Q: What about the “selectivity 5-HT2A/5-HT1A” value (5-HT2AR) of the same molecule?
A: 245

Q: What about the Ki (5-HT2AR) of the same molecule?
A: 1000 nM
